# Results taken from US10696615B2, “Prenylated hydroxystilbenes” (The University of Sydney, priority 2011, dated 2020).
# What was measured:
# Format in all cases: cell-based, human
# [1] = test system: OVCAR-4; test: NCI in vitro cancer screen, Ovarian Cancer; conditions: OVCAR-4; for GI50 / CC50: Homo sapiens; for CC50: read-out: LC50 (the source's name)
# [2] = test system: COLO 205; test: NCI in vitro cancer screen, Colon Cancer; conditions: COLO 205; for GI50 / CC50: Homo sapiens; for CC50: read-out: LC50 (the source's name)
# [3] = test system: ACHN; test: NCI in vitro cancer screen, Renal Cancer; conditions: for GI50 / CC50: Homo sapiens; for CC50: read-out: LC50 (the source's name)
# [4] = test system: OVCAR-5; test: NCI in vitro cancer screen, Ovarian Cancer; conditions: OVCAR-5; for GI50 / CC50: Homo sapiens; for CC50: read-out: LC50 (the source's name)
# [5] = test system: SK-OV-3; test: NCI in vitro cancer screen, Ovarian Cancer; conditions: SK-OV-3; for GI50 / CC50: Homo sapiens; for CC50: read-out: LC50 (the source's name)
# [6] = test system: SK-MEL-28; test: NCI in vitro cancer screen, Melanoma; conditions: SK-MEL-28; for GI50 / LC50: Homo sapiens
# [7] = test system: HCT-116; test: NCI in vitro cancer screen, Colon Cancer; conditions: HCT-116; for GI50 / LC50 (concentration killing 50% of cells): Homo sapiens
# [8] = test system: HOP-92; test: NCI in vitro cancer screen, Non-Small Cell Lung Cancer; conditions: HOP-92; for GI50 / CC50: Homo sapiens; for CC50: read-out: LC50 (the source's name)
# [9] = test system: SNB-19; test: NCI in vitro cancer screen, CNS Cancer; conditions: SNB-19; for GI50 / CC50: Homo sapiens; for CC50: read-out: LC50 (the source's name)
# [10] = test system: NCI-H23; test: NCI in vitro cancer screen, Non-Small Cell Lung Cancer; conditions: NCI-H23; for GI50 / LC50: Homo sapiens
# [11] = test system: PC-3; test: NCI in vitro cancer screen, Prostate Cancer; conditions: PC-3; for GI50 / CC50: Homo sapiens; for CC50: read-out: LC50 (the source's name)
# [12] = test system: M14; test: NCI in vitro cancer screen, Melanoma; conditions: M14; for GI50 / CC50: Homo sapiens; for CC50: read-out: LC50 (the source's name)
# [13] = test system: NCI-H460; test: NCI in vitro cancer screen, Non-Small Cell Lung Cancer; conditions: NCI-H460; for GI50 / CC50: Homo sapiens; for CC50: read-out: LC50 (the source's name)
# [14] = test system: CCRF-CEM; test: NCI in vitro cancer screen, Leukemia; conditions: for GI50 / CC50: Homo sapiens; for CC50: read-out: LC50 (the source's name)
# [15] = test system: U251; test: NCI in vitro cancer screen, CNS Cancer; conditions: U251; for GI50 / CC50: Homo sapiens, U-251; for CC50: read-out: LC50 (the source's name)
# [16] = test system: MDA-MB-231 (MDA-MB-231/ATCC); test: NCI in vitro cancer screen, Breast Cancer; conditions: MDA-MB-231; for GI50 / CC50: Homo sapiens; for CC50: read-out: LC50 (the source's name)
# [17] = test system: DU-145; test: NCI in vitro cancer screen, Prostate Cancer; conditions: DU-145; for GI50 / CC50: Homo sapiens; for CC50: read-out: LC50 (the source's name)
# [18] = test system: KM12; test: NCI in vitro cancer screen, Colon Cancer; conditions: KM12; for GI50 / CC50: Homo sapiens; for CC50: read-out: LC50 (the source's name)
# [19] = test system: HCC-2998; test: NCI in vitro cancer screen, Colon Cancer; conditions: HCC-2998; for GI50 / CC50: Homo sapiens; for CC50: read-out: LC50 (the source's name)
# [20] = test system: ADR-RES (NCI/ADR-RES); test: NCI in vitro cancer screen, Ovarian Cancer; conditions: for TGI: ADR-RES; for GI50 / CC50: Homo sapiens, NCI/ADR-RES; for CC50: read-out: LC50 (the source's name)
# [21] = test system: SK-MEL-5; test: NCI in vitro cancer screen, Melanoma; conditions: SK-MEL-5; for GI50 / CC50: Homo sapiens; for CC50: read-out: LC50 (the source's name)
# [22] = test system: NCI-H522; test: NCI in vitro cancer screen, Non-Small Cell Lung Cancer; conditions: NCI-H522; for GI50 / CC50: Homo sapiens; for CC50: read-out: LC50 (the source's name)
# [23] = test system: UACC-62; test: NCI in vitro cancer screen, Melanoma; conditions: UACC-62; for GI50 / CC50: Homo sapiens; for CC50: read-out: LC50 (the source's name)
# [24] = test system: MOLT-4; test: NCI in vitro cancer screen, Leukemia; conditions: MOLT-4; for GI50 / CC50: Homo sapiens; for CC50: read-out: LC50 (the source's name)
# [25] = test system: HCT-15; test: NCI in vitro cancer screen, Colon Cancer; conditions: HCT-15; for GI50 / CC50: Homo sapiens; for CC50: read-out: LC50 (the source's name)
# [26] = test system: OVCAR-8; test: NCI in vitro cancer screen, Ovarian Cancer; conditions: OVCAR-8; for GI50 / CC50: Homo sapiens; for CC50: read-out: LC50 (the source's name)
# [27] = test system: LOX IMVI; test: NCI in vitro cancer screen, Melanoma; conditions: for GI50 / CC50: Homo sapiens; for CC50: read-out: LC50 (the source's name)
# [28] = test system: CAKI-1; test: NCI in vitro cancer screen, Renal Cancer; conditions: CAKI-1; for GI50 / CC50: Homo sapiens; for CC50: read-out: LC50 (the source's name)
# [29] = test system: SK-MEL-2; test: NCI in vitro cancer screen, Melanoma; conditions: SK-MEL-2; for GI50 / LC50: Homo sapiens
# [30] = test system: MALME-3M; test: NCI in vitro cancer screen, Melanoma; conditions: for GI50 / CC50: Homo sapiens, Malme-3M; for CC50: read-out: LC50 (the source's name); for TGI: MALME-3M
compound,measurement,setting,value
"COc1cc(O)cc(/C=C/c2ccc(O)c(O)c2)c1CC=C(C)C [USYDS9, (E)-2-(3-methyl-2-buten-1-yl)-3′,4′,5-trihydroxy-3-methoxystilbene]",GI50,[1],5.48 µM
same,CC50,[1],> 100 µM
same,TGI,[1],>100 µM
same,TGI,[2],83.6 µM
same,GI50,[2],21.7 µM
same,CC50,[2],> 100 µM
same,TGI,[3],>100 µM
same,GI50,[3],0.66 µM
same,CC50,[3],> 100 µM
same,GI50,[4],30.7 µM
same,CC50,[4],> 100 µM
same,TGI,[4],>100 µM
same,GI50,[5],0.5 µM
same,CC50,[5],> 100 µM
same,TGI,[5],5.12 µM
same,GI50,[6],8.14 µM
same,LC50,[6],> 100 µM
same,TGI,[6],>100 µM
same,TGI,[7],12.8 µM
same,GI50,[7],1.4 µM
same,LC50 (concentration killing 50% of cells),[7],75 µM
same,TGI,[8],>100 µM
same,GI50,[8],0.62 µM
same,CC50,[8],> 100 µM
same,GI50,[9],0.55 µM
same,CC50,[9],> 100 µM
same,TGI,[9],>100 µM
same,GI50,[10],1.43 µM
same,LC50,[10],> 100 µM
same,TGI,[10],>100 µM
same,GI50,[11],2.92 µM
same,CC50,[11],> 100 µM
same,TGI,[11],>100 µM
same,GI50,[12],0.3 µM
same,CC50,[12],> 100 µM
same,TGI,[12],5.69 µM
same,GI50,[13],0.47 µM
same,CC50,[13],75.7 µM
same,TGI,[13],10.3 µM
same,TGI,[14],>100 µM
same,GI50,[14],2.14 µM
same,CC50,[14],> 100 µM
same,GI50,[15],0.59 µM
same,CC50,[15],> 100 µM
same,TGI,[15],19.6 µM
same,GI50,[16],0.38 µM
same,CC50,[16],> 100 µM
same,TGI,[16],2.61 µM
same,TGI,[17],2.62 µM
same,GI50,[17],0.35 µM
same,CC50,[17],> 100 µM
same,GI50,[18],0.52 µM
same,CC50,[18],63.9 µM
same,TGI,[18],12.2 µM
same,TGI,[19],21.2 µM
same,GI50,[19],4.18 µM
same,CC50,[19],> 100 µM
same,TGI,[20],3.69 µM
same,GI50,[20],0.29 µM
same,CC50,[20],> 100 µM
same,GI50,[21],0.39 µM
same,CC50,[21],> 100 µM
same,TGI,[21],2.52 µM
same,GI50,[22],0.15 µM
same,CC50,[22],44.8 µM
same,TGI,[22],0.45 µM
same,GI50,[23],3.22 µM
same,CC50,[23],> 100 µM
same,TGI,[23],34.8 µM
same,GI50,[24],1.27 µM
same,CC50,[24],> 100 µM
same,TGI,[24],6.77 µM
same,TGI,[25],>100 µM
same,GI50,[25],0.43 µM
same,CC50,[25],> 100 µM
same,GI50,[26],0.5 µM
same,CC50,[26],> 100 µM
same,TGI,[26],38.3 µM
same,TGI,[27],58.6 µM
same,GI50,[27],0.64 µM
same,CC50,[27],> 100 µM
same,TGI,[28],>100 µM
same,GI50,[28],19.1 µM
same,CC50,[28],> 100 µM
same,GI50,[29],2.17 µM
same,LC50,[29],> 100 µM
same,TGI,[29],12.1 µM
same,GI50,[30],0.62 µM
same,CC50,[30],> 100 µM
same,TGI,[30],>100 µM
"CC(C)=CCc1c(O)cc(/C=C/c2ccc(O)c(O)c2)c(CC=C(C)C)c1O [USYDS7, (E)-2,4-di(3-methyl-2-buten-1-yl)-3,3′,4′,5-tetrahydroxystilbene]",GI50,[1],2.85 µM
same,CC50,[1],66.8 µM
same,TGI,[1],11.1 µM
same,TGI,[2],4.34 µM
same,GI50,[2],1.79 µM
same,CC50,[2],12.2 µM
same,TGI,[3],9.12 µM
same,GI50,[3],2.58 µM
same,CC50,[3],37.6 µM
same,GI50,[4],3.04 µM
same,CC50,[4],39 µM
same,TGI,[4],11.6 µM
same,GI50,[5],5.98 µM
same,CC50,[5],46.5 µM
same,TGI,[5],19.4 µM
same,GI50,[6],3.65 µM
same,LC50,[6],36.7 µM
same,TGI,[6],11.8 µM
same,TGI,[7],3.02 µM
same,GI50,[7],1.57 µM
same,LC50 (concentration killing 50% of cells),[7],5.82 µM
same,TGI,[8],4.21 µM
same,GI50,[8],1.52 µM
same,CC50,[8],14.2 µM
same,GI50,[9],2.8 µM
same,CC50,[9],39.9 µM
same,TGI,[9],8.64 µM
same,GI50,[10],1.81 µM
same,LC50,[10],29.5 µM
same,TGI,[10],5.22 µM
same,GI50,[11],2.02 µM
same,CC50,[11],11.3 µM
same,TGI,[11],4.57 µM
same,GI50,[12],1.79 µM
same,CC50,[12],7.73 µM
same,TGI,[12],3.71 µM
same,GI50,[13],1.64 µM
same,CC50,[13],6.33 µM
same,TGI,[13],3.22 µM
same,TGI,[14],8.48 µM
same,GI50,[14],2.73 µM
same,CC50,[14],71.2 µM
same,GI50,[15],1.49 µM
same,CC50,[15],5.74 µM
same,TGI,[15],2.93 µM
same,GI50,[16],1.49 µM
same,CC50,[16],10.7 µM
same,TGI,[16],3.89 µM
same,TGI,[17],7.62 µM
same,GI50,[17],2.65 µM
same,CC50,[17],28.3 µM
same,GI50,[18],1.93 µM
same,CC50,[18],7.79 µM
same,TGI,[18],3.88 µM
same,TGI,[19],4.26 µM
same,GI50,[19],1.95 µM
same,CC50,[19],9.34 µM
same,TGI,[20],7.90 µM
same,GI50,[20],2.23 µM
same,CC50,[20],42.4 µM
same,GI50,[21],1.8 µM
same,CC50,[21],7.54 µM
same,TGI,[21],3.68 µM
same,GI50,[22],1.61 µM
same,CC50,[22],7.92 µM
same,TGI,[22],3.57 µM
same,GI50,[23],2.8 µM
same,CC50,[23],31.5 µM
same,TGI,[23],7.84 µM
same,GI50,[24],2.01 µM
same,CC50,[24],26.5 µM
same,TGI,[24],5.19 µM
same,TGI,[25],3.78 µM
same,GI50,[25],1.29 µM
same,CC50,[25],22 µM
same,GI50,[26],1.68 µM
same,CC50,[26],7.95 µM
same,TGI,[26],3.65 µM
same,TGI,[27],3.41 µM
same,GI50,[27],1.71 µM
same,CC50,[27],6.81 µM
same,TGI,[28],16.2 µM
same,GI50,[28],4.24 µM
same,CC50,[28],49 µM
same,GI50,[29],3.2 µM
same,LC50,[29],42.9 µM
same,TGI,[29],7.82 µM
same,GI50,[30],1.97 µM
same,CC50,[30],10.4 µM
same,TGI,[30],4.46 µM
